Data taken from ChEMBL document CHEMBL1201862, “PubChem BioAssay data set” (2004).
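Each compound was tested at five concentrations against cells in 96-well plates for 48 hours. The concentration for 50% growth inhibition is given as GI50.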 Active and inactive are the calls of the source. No stated cut-off is given here; in the data, active = GI50 up to about 1.1 µM and inactive = higher.

Tests used:
Experiment in all cases: NCI-60 cell line screen, 48 h
HCT-116 = system: HCT-116
SK-MEL-5 = system: SK-MEL-5
M14 = system: M14
OVCAR-8 = system: OVCAR-8
UO-31 = system: UO-31
EKVX = system: EKVX
SR = system: SR
NCI-H226 = system: NCI-H226
SF-295 = system: SF-295
KM12 = system: KM12
RXF 393 = system: RXF 393
HT-29 = system: HT-29
CCRF-CEM = system: CCRF-CEM
U-251 = system: U-251
LOX IMVI = system: LOX IMVI
SNB-75 = system: SNB-75
HL-60 = system: HL-60
PC-3 = system: PC-3
MOLT-4 = system: MOLT-4
NCI-H23 = system: NCI-H23

SMILES	GI50 (HCT-116)	GI50 (SK-MEL-5)	GI50 (M14)	GI50 (OVCAR-8)	GI50 (UO-31)	GI50 (EKVX)	GI50 (SR)	GI50 (NCI-H226)	GI50 (SF-295)	GI50 (KM12)	GI50 (RXF 393)	GI50 (HT-29)	GI50 (CCRF-CEM)	GI50 (U-251)	GI50 (LOX IMVI)	GI50 (SNB-75)	GI50 (HL-60)	GI50 (PC-3)	GI50 (MOLT-4)	GI50 (NCI-H23)
COc1ccc(NC2C(=O)C3(C)CCC2C3(C)C)cc1 (stereo not given)	> 100 µM (inactive)	34.5 µM (inactive)	> 100 µM (inactive)	> 100 µM (inactive)	54.7 µM (inactive)	> 100 µM (inactive)	74.8 µM (inactive)	67.8 µM (inactive)	> 100 µM (inactive)	> 100 µM (inactive)	> 100 µM (inactive)	40.4 µM (inactive)	> 100 µM (inactive)	> 100 µM (inactive)	> 100 µM (inactive)	> 100 µM (inactive)	29.3 µM (inactive)	97.7 µM (inactive)	67.8 µM (inactive)	> 100 µM (inactive)
O=C(c1ccccc1)c1sc2c(=O)c(C(=O)c3ccccc3)c(C(=O)c3ccccc3)sc2c(=O)c1C(=O)c1ccccc1	44.1 µM (inactive)	32 µM (inactive)	31.5 µM (inactive)	35.4 µM (inactive)	5.97 µM (inactive)	> 100 µM (inactive)	4.88 µM (inactive)	82.4 µM (inactive)	96.6 µM (inactive)	> 100 µM (inactive)	23.8 µM (inactive)	33.3 µM (inactive)	23.8 µM (inactive)	44.3 µM (inactive)	25.1 µM (inactive)	24.5 µM (inactive)	21.5 µM (inactive)	> 100 µM (inactive)	20.7 µM (inactive)	42.3 µM (inactive)
CCCc1[nH]nc(C(N)=O)c1/N=N/N(C)C	51.9 µM (inactive)	50.1 µM (inactive)	> 100 µM (inactive)	76.2 µM (inactive)	1.16 µM (inactive)	26.3 µM (inactive)	10.5 µM (inactive)	38.9 µM (inactive)	57.9 µM (inactive)	37.1 µM (inactive)	41.5 µM (inactive)	86.3 µM (inactive)	27 µM (inactive)	55.8 µM (inactive)	47 µM (inactive)	16.1 µM (inactive)	8.34 µM (inactive)	> 100 µM (inactive)	15 µM (inactive)	75.3 µM (inactive)
c1cc2c(cc1NC1=NCCO1)OCO2	> 100 µM (inactive)	> 100 µM (inactive)	> 100 µM (inactive)	> 100 µM (inactive)	> 100 µM (inactive)	> 100 µM (inactive)	64.3 µM (inactive)	> 100 µM (inactive)	> 100 µM (inactive)	> 100 µM (inactive)	> 100 µM (inactive)	> 100 µM (inactive)	12.9 µM (inactive)	> 100 µM (inactive)	> 100 µM (inactive)	45.9 µM (inactive)	41.2 µM (inactive)	> 100 µM (inactive)	> 100 µM (inactive)	> 100 µM (inactive)
c1ccc2c(c1)c1c3c(c4c(n32)=NCCN4)CCC1	30.5 µM (inactive)	32.4 µM (inactive)	44.3 µM (inactive)	39.6 µM (inactive)	45.2 µM (inactive)	20.9 µM (inactive)	17.4 µM (inactive)	19.2 µM (inactive)	26.9 µM (inactive)	27 µM (inactive)	17.9 µM (inactive)	20.8 µM (inactive)	53.1 µM (inactive)	33.8 µM (inactive)	21.1 µM (inactive)	21.7 µM (inactive)	44.4 µM (inactive)	26.6 µM (inactive)	21.3 µM (inactive)	31.6 µM (inactive)
O=C(Nn1cc(F)c(=O)[nH]c1=O)C12CC3CC(CC(C3)C1)C2	5.77 µM (inactive)	3.2 µM (inactive)	15.1 µM (inactive)	22.6 µM (inactive)	8.2 µM (inactive)	24 µM (inactive)	4.05 µM (inactive)	38.9 µM (inactive)	26.6 µM (inactive)	6.27 µM (inactive)	16.4 µM (inactive)	8.17 µM (inactive)	13 µM (inactive)	19.3 µM (inactive)	7.8 µM (inactive)	24.8 µM (inactive)	9.46 µM (inactive)	10.7 µM (inactive)	16 µM (inactive)	7.73 µM (inactive)
c1ccc2c(c1)NC1(N3CCCCC3)CCCCC21 (stereo not given)	37.9 µM (inactive)	56.1 µM (inactive)	55.3 µM (inactive)	63.2 µM (inactive)	51.9 µM (inactive)	25.5 µM (inactive)	32 µM (inactive)	52.4 µM (inactive)	45.4 µM (inactive)	32.3 µM (inactive)	9.16 µM (inactive)	39.4 µM (inactive)	32.4 µM (inactive)	41.2 µM (inactive)	38.4 µM (inactive)	22.5 µM (inactive)	29.6 µM (inactive)	39.4 µM (inactive)	25.9 µM (inactive)	50.5 µM (inactive)
Clc1ccc(/C(=C/c2ccccc2)Cn2ccnc2)cc1	9.08 µM (inactive)	11.1 µM (inactive)	21.9 µM (inactive)	26.9 µM (inactive)	3.39 µM (inactive)	31.9 µM (inactive)	19.8 µM (inactive)	12.9 µM (inactive)	12.7 µM (inactive)	13.2 µM (inactive)	14.6 µM (inactive)	29.6 µM (inactive)	17.5 µM (inactive)	21.8 µM (inactive)	19.2 µM (inactive)	18.6 µM (inactive)	14.3 µM (inactive)	13.6 µM (inactive)	13.6 µM (inactive)	38.2 µM (inactive)
OCC1OC(n2cnc3cccnc32)CC1O (stereo not given)	> 100 µM (inactive)	> 100 µM (inactive)	> 100 µM (inactive)	> 100 µM (inactive)	> 100 µM (inactive)	> 100 µM (inactive)	> 100 µM (inactive)	> 100 µM (inactive)	> 100 µM (inactive)	> 100 µM (inactive)	> 100 µM (inactive)	> 100 µM (inactive)	> 100 µM (inactive)	> 100 µM (inactive)	> 100 µM (inactive)	7.76 µM (inactive)	> 100 µM (inactive)	> 100 µM (inactive)	> 100 µM (inactive)	> 100 µM (inactive)
Nc1ccc2c(=S)c3ccccc3[nH]c2c1	24.3 µM (inactive)	33.5 µM (inactive)	20.2 µM (inactive)	52.5 µM (inactive)	27.9 µM (inactive)	36.5 µM (inactive)	25.1 µM (inactive)	24.1 µM (inactive)	26.4 µM (inactive)	44.4 µM (inactive)	39.6 µM (inactive)	19.3 µM (inactive)	18.8 µM (inactive)	28.4 µM (inactive)	26.4 µM (inactive)	18.7 µM (inactive)	16.2 µM (inactive)	34 µM (inactive)	18.7 µM (inactive)	22.9 µM (inactive)
Cc1ccc2c(/C=C/c3ccc(N(C)C)cc3)ccc(C(C)C)cc1-2	> 100 µM (inactive)	22 µM (inactive)	> 100 µM (inactive)	> 100 µM (inactive)	> 100 µM (inactive)	94.2 µM (inactive)	27.9 µM (inactive)	> 100 µM (inactive)	> 100 µM (inactive)	> 100 µM (inactive)	> 100 µM (inactive)	49.1 µM (inactive)	37.2 µM (inactive)	> 100 µM (inactive)	> 100 µM (inactive)	> 100 µM (inactive)	12.9 µM (inactive)	> 100 µM (inactive)	> 100 µM (inactive)	> 100 µM (inactive)
N/N=C1/C(=N/O)CCc2nonc21	> 100 µM (inactive)	> 100 µM (inactive)	> 100 µM (inactive)	> 100 µM (inactive)	28.6 µM (inactive)	41.6 µM (inactive)	> 100 µM (inactive)	24.6 µM (inactive)	> 100 µM (inactive)	> 100 µM (inactive)	> 100 µM (inactive)	> 100 µM (inactive)	> 100 µM (inactive)	> 100 µM (inactive)	> 100 µM (inactive)	> 100 µM (inactive)	> 100 µM (inactive)	> 100 µM (inactive)	> 100 µM (inactive)	> 100 µM (inactive)
O=S(=O)(O)c1ccc2c(/N=N\c3cccc4ccccc34)c(O)c(S(=O)(=O)O)cc2c1	> 100 µM (inactive)	> 100 µM (inactive)	> 100 µM (inactive)	> 100 µM (inactive)	> 100 µM (inactive)	> 100 µM (inactive)	> 48.6 µM (inactive)	> 100 µM (inactive)	> 100 µM (inactive)	> 100 µM (inactive)	> 100 µM (inactive)	> 100 µM (inactive)	> 100 µM (inactive)	> 100 µM (inactive)	> 100 µM (inactive)	> 100 µM (inactive)	> 100 µM (inactive)	> 100 µM (inactive)	> 100 µM (inactive)	> 100 µM (inactive)
COC1=C(C)C(=O)c2c(c(COC(N)=O)c3n2CC2C3N2C)C1=O (stereo not given)	< 0.0125 µM (active)	0.0209 µM (active)	< 0.01 µM (active)	< 0.0191 µM (active)	< 0.0145 µM (active)	0.14 µM (active)	< 0.01 µM (active)	0.0766 µM (active)	< 0.01 µM (active)	< 0.0166 µM (active)	< 0.0331 µM (active)	< 0.01 µM (active)	0.0154 µM (active)	< 0.01 µM (active)	< 0.01 µM (active)	< 0.0179 µM (active)	0.0296 µM (active)	0.0555 µM (active)	< 0.0147 µM (active)	< 0.0108 µM (active)
